Reference: patent US12605517B1 (Belhaven BioPharma Inc., priority 2024, dated 2026)

Tests used:
[1] = Human Phase 1 clinical study, plasma epinephrine pharmacokinetics and bioavailability; format: in vivo; details: for Tmax: read-out: median Tmax (converted)
Method: Twelve human subjects participated in the open-label, single sequence crossover study. […] Nor did the subject participate in Treatment D.
The dry powder formulation was administered via intranasal instillation once using a nasal device (APTAR). The IM solution and materials were supplied by the study site and prepared according to the local procedures. The study drug was administered at approximately the same time on each treatment day. There was a washout period of 20 days between the nasal doses administered as treatment A and treatment D. The subjects were admitted to the clinical site the day before each treatment administration and remained on site until at least 8 hours post-dose, or when applicable, until 24 hours post-dose of the specific treatment period. The study drug was administered after at least a 10 hour fast. A standardized meal was provided approximately 4 hours after dosing.
Blood samples were collected prior to dosing at 60, 30, and 0 minutes before dosing, and after dosing at 2, 5, 7, 10, 15, 20, 25, 30, 45, 60, 90, 120, 180, 240, and 360 minutes. […] The calibration curve range of the bioanalytical method was from 10 to 10000 pg/mL. Recovery was >75% and freeze-thaw, short-term and long-term stability (584 days) were all shown to be acceptable; the analyte was stable under all conditions tested.
Noncompartmental analysis was performed on individual human subject plasma concentration-time data using nominal doses and actual blood sampling times. […] Baseline correction was accomplished using the average of the measured concentrations at nominal times of −60, −30, and 0 minutes before dosing.
Pharmacokinetic analyses were performed using the standard PK analysis software package PHOENIX® WinNonlin version 8.4.
The PK population consists of all human subjects who provided sufficient PK samples for a given treatment to allow for adequate determination of PK parameters of interest.

[2] = Study 101, plasma epinephrine pharmacokinetics; format: in vivo; details: human, im
Method: Each patient was provided each treatment of the trial with 72-hour washout periods between each treatment, beginning with a 3.5 mg intranasal dose, followed by a 0.3 mg intramuscular dose, followed by a 0.5 mg intramuscular dose, and concluding with a 5.5 mg intranasal dose, with a safety follow-up performed 3 to 5 days after the final dose was administered. The primary endpoints of the study were pharmacokinetic measurements and assessments of comparative bioavailability, while the secondary endpoints were safety concerns and pharmacodynamic assessments.

CNC[C@H](O)c1ccc(O)c(O)c1 [Epinephrine IM, epinephrine]
Cmax ([1]; 0.3 mg IM, read-out: mean baseline-corrected Cmax): 0.184 ng/mL
Tmax ([1]; 0.3 mg IM): 48 min
Tmax ([1]; 0.5 mg IM): 48 min
Tmax ([2]; 0.3 mg, 0.3 mg IM, read-out: Tmax (Mean) (converted)): 41.4 min
Tmax ([2]; 0.3 mg, 0.3 mg IM, read-out: Tmax (Median) (converted)): 48 min
Tmax ([2]; 0.5 mg, 0.5 mg IM, read-out: Tmax (Mean) (converted)): 40.9 min
Tmax ([2]; 0.5 mg, 0.5 mg IM, read-out: Tmax (Median) (converted)): 48 min
